Test results reported in patent publication US20230295164A1, “COMPOUNDS HAVING ANTIBACTERIAL ACTIVITY” (The Trustees of Princeton University, priority 2020, published 2023).
≈ marks a conversion by molar mass, not a printed value.

Columns and labels:
[1] = test system: Acinetobacter baumannii, ATCC 17978; assay: MIC testing, broth microdilution in CAMHB; type: cell-based; conditions: 18-20 hr, lowest concentration that completely inhibits visible growth; for Compound MICs, Acinetobacter baumannii, ATCC 17978: 37° C.; for MIC: Acinetobacter baumannii, ATCC17978, 37° C., read-out: Compound MICs, Acinetobacter baumannii, ATCC 17978
Procedure: (§1) Compounds 1-71 were subsequently tested to determine MICs of the compounds relative to the following five species/strains of bacteria: Staphylococcus aureus, NRS384; Enterococcus faecalis, ATCC 51575; Salmonella typhimurium, CMCC 50115; Escherichia coli, ATCC BAA-198; and Acinetobacter baumannii, ATCC 17978. MIC testing of compounds was conducted according to the following protocol.
(§2) For each strain to be tested, made fresh streaks onto CAMHA from −80° C. glycerol stocks.
(§3) • CAMHB: Dissolved 22 g of the powder per 1 L of purified water. Mixed well. Autoclaved at 121° C. for 10 minutes. Stored at room temperature (RT) for no more than 1 week. • Saline: Dissolved 9 g of the powder per 1 L of purified water. Mixed well. Autoclaved at 121° C. for 30 minutes. Stored at room temperature (RT) for no more than 1 week.
(§4) Prepared the stock solutions of the tested compounds.
(§5) For compounds: • a) Dispensed 20 ul compound to the wells in column 1, and 20 ul DMSO to the wells in column 2 to 12; • b) Diluted the compounds by transferring 10 ul compounds from column 1 to 20 ul DMSO in column 2; mix with pipette. • c) Repeated until column 11 to get 3×serial dilutions. Column 12 was the DMSO control.
(§6) A multichannel pipette was used to deliver 1 μl of the diluted compound into each well of the corresponding daughter plate.
(§7) Scraped 4-8 single colonies from an agar plate into 5 ml saline in a 14 ml Falcon conical tube. Vortexed the tube to suspend the bacteria. Adjusted the turbidity to ˜0.2 (corresponding to 0.5 McFarland) with an Ultrospec 10 Cell density meter.
(§8) The strain suspension was diluted 200-fold in CAMHB medium and dispense into a sterile reservoir. A multichannel pipette was then used to deliver 99 μl of the diluted inocula into each well of the corresponding daughter plate.
(§9) Incubate the daughter plates at 37° C., 85% humidity for 18-20 hr.
(§10) A magnifying mirror device was used for ease of scoring the presence or absence of growth in the wells. 96-well micro-plates were photographed.

[2] = test system: Enterococcus faecalis, ATCC 51575; assay: MIC testing, broth microdilution in CAMHB; type: cell-based; conditions: 18-20 hr, lowest concentration that completely inhibits visible growth; for Compound MICs, Enterococcus faecalis, ATCC 51575: 37° C.; for MIC: Enterococcus faecalis, ATCC51575, 37° C., read-out: Compound MICs, Enterococcus faecalis, ATCC 51575
Procedure: as §1, §2, §3, §4, §5, §6, §7, §8, §9, §10

[3] = test system: Escherichia coli, ATCC BAA-198; assay: MIC testing, broth microdilution in CAMHB; type: cell-based; conditions: 18-20 hr, lowest concentration that completely inhibits visible growth; for Compound MICs, Escherichia coli, ATCC BAA-198: 37° C.; for MIC: Escherichia coli, ATCCBAA198, 37° C., read-out: Compound MICs, Escherichia coli, ATCC BAA-198
Procedure: as §1, §2, §3, §4, §5, §6, §7, §8, §9, §10

[4] = test system: Salmonella typhimurium, CMCC 50115; assay: MIC testing, broth microdilution in CAMHB; type: cell-based; conditions: 37° C., 18-20 hr, lowest concentration that completely inhibits visible growth; for MIC: Salmonella enterica, read-out: Compound MICs, Salmonella typhimurium, CMCC 50115
Procedure: as §1, §2, §3, §4, §5, §6, §7, §8, §9, §10

[5] = test system: Staphylococcus aureus, NRS384; assay: MIC testing, broth microdilution in CAMHB; type: cell-based; conditions: 18-20 hr, lowest concentration that completely inhibits visible growth; for Compound MICs, Staphylococcus aureus, NRS384: 37° C.; for MIC: Staphylococcus aureus, NRS384, 37° C., read-out: Compound MICs, Staphylococcus aureus, NRS384
Procedure: as §1, §2, §3, §4, §5, §6, §7, §8, §9, §10

P. aeruginosa PA14 = assay: MIC testing against P. aeruginosa PA14, same protocol; type: cell-based, Pseudomonas aeruginosa; conditions: according to the protocol above
Procedure: For each strain to be tested, made fresh streaks onto CAMHA from −80° C. glycerol stocks. • CAMHB: Dissolved 22 g of the powder per 1 L of purified water. Mixed well. Autoclaved at 121° C. for 10 minutes. Stored at room temperature (RT) for no more than 1 week. • Saline: Dissolved 9 g of the powder per 1 L of purified water. Mixed well. Autoclaved at 121° C. for 30 minutes. Stored at room temperature (RT) for no more than 1 week. Prepared the stock solutions of the tested compounds. For compounds: • a) Dispensed 20 ul compound to the wells in column 1, and 20 ul DMSO to the wells in column 2 to 12; • b) Diluted the compounds by transferring 10 ul compounds from column 1 to 20 ul DMSO in column 2; mix with pipette. • c) Repeated until column 11 to get 3×serial dilutions. Column 12 was the DMSO control. A multichannel pipette was used to deliver 1 μl of the diluted compound into each well of the corresponding daughter plate. Scraped 4-8 single colonies from an agar plate into 5 ml saline in a 14 ml Falcon conical tube. Vortexed the tube to suspend the bacteria. Adjusted the turbidity to ˜0.2 (corresponding to 0.5 McFarland) with an Ultrospec 10 Cell density meter. The strain suspension was diluted 200-fold in CAMHB medium and dispense into a sterile reservoir. A multichannel pipette was then used to deliver 99 μl of the diluted inocula into each well of the corresponding daughter plate. Incubate the daughter plates at 37° C., 85% humidity for 18-20 hr. […] A magnifying mirror device was used for ease of scoring the presence or absence of growth in the wells. 96-well micro-plates were photographed. […]

Compound | Compound MICs, Acinetobacter baumannii, ATCC 17978 [1] | Compound MICs, Enterococcus faecalis, ATCC 51575 [2] | Compound MICs, Escherichia coli, ATCC BAA-198 [3] | Compound MICs, Salmonella typhimurium, CMCC 50115 [4] | Compound MICs, Staphylococcus aureus, NRS384 [5] | MICs against P. aeruginosa PA14 (P. aeruginosa PA14) | MIC [1] | MIC [2] | MIC [3] | MIC [4] | MIC [5]
Nc1nc(N)c2c(ccc3c2ccn3-c2ccc(F)cc2)n1 [Compound 40] | 2.37 µg/mL | 0.09 µg/mL | 7.11 µg/mL | 0.26 µg/mL | 0.26 µg/mL | 45 µg/mL |  |  |  |  | 
Nc1nc(N)c2c(ccc3c2ccn3Cc2ccc(F)nc2)n1 [Compound 45] | 2.37 µg/mL | 0.01 µg/mL | 7.11 µg/mL | 0.003 µg/mL | 0.26 µg/mL | 6.3 µg/mL |  |  |  |  | 
Nc1nc(N)c2c(ccc3c2ccn3Cc2ccnc(F)c2)n1 [Compound 56] | 2.37 µg/mL | 0.01 µg/mL | 7.11 µg/mL | 0.03 µg/mL | 0.03 µg/mL |  |  |  |  |  | 
Nc1nc(N)c2c(ccc3c2ccn3Cc2ccc(C#Cc3ccccc3)cc2)n1 [Compound 23] | >64 µg/mL | 0.26 µg/mL | >64 µg/mL | >64 µg/mL | 2.37 µg/mL |  |  |  |  |  | 
Nc1nc(N)c2c(n1)c(Br)cc1c2ccn1Cc1ccc(F)cc1 [Compound 46] | 7.11 µg/mL | ≤0.001 µg/mL | >64 µg/mL | 2.37 µg/mL | 0.79 µg/mL |  |  |  |  |  | 
Nc1nc(NCCO)c2c(ccc3c2ccn3Cc2ccc(-c3ccccc3)cc2)n1 [Compound 2] |  |  |  |  |  |  | 7.11 µg/mL (≈ 17.4 µM) | 2.37 µg/mL (≈ 5.79 µM) | 64 µg/mL (≈ 156 µM) | > 64 µg/mL | 2.37 µg/mL (≈ 5.79 µM)
COc1ccnc(Cn2ccc3c4c(N)nc(N)nc4ccc32)c1 [Compound 63] |  |  |  |  |  |  | 21.3 µg/mL (≈ 66.5 µM) | 0.09 µg/mL (≈ 0.281 µM) | 21.3 µg/mL (≈ 66.5 µM) | 0.26 µg/mL (≈ 0.812 µM) | 0.26 µg/mL (≈ 0.812 µM)
Nc1nc(N)c2c(ccc3c2ccn3Cc2ccc(C(F)(F)F)nc2)n1 [Compound 50] | 7.11 µg/mL | 0.003 µg/mL | 7.11 µg/mL | 0.03 µg/mL | 0.09 µg/mL |  |  |  |  |  | 
Nc1nc(N)c2c(ccc3c2ccn3Cc2csc(C(F)(F)F)n2)n1 [Compound 60] | 21.3 µg/mL | 0.09 µg/mL | 7.11 µg/mL | 0.79 µg/mL | 0.79 µg/mL |  |  |  |  |  | 
C=C(Cn1ccc2c3c(N)nc(N)nc3c(Br)cc21)C(=O)OC [Compound 54] | 64 µg/mL | 0.003 µg/mL | >64 µg/mL | 21.3 µg/mL | 2.37 µg/mL |  |  |  |  |  | 
Nc1nc(N)c2c(ccc3c2ccn3Cc2cccc(F)n2)n1 [Compound 48] | 0.79 µg/mL | ≤0.001 µg/mL | 7.11 µg/mL | 0.003 µg/mL | 0.09 µg/mL | 12.5 µg/mL |  |  |  |  | 
C=Cc1ccc(Cn2ccc3c4c(N)nc(N)nc4ccc32)cc1 [Compound 33] | 7.11 µg/mL | 0.03 µg/mL | 2.37 µg/mL | 0.26 µg/mL | 0.26 µg/mL |  |  |  |  |  | 
CCc1ccc(Cn2ccc3c4c(N)nc(N)nc4ccc32)cc1 [Compound 31] | 7.11 µg/mL | 0.09 µg/mL | 7.11 µg/mL | 0.79 µg/mL | 0.26 µg/mL |  |  |  |  |  | 
N#Cc1cncc(Cn2ccc3c4c(N)nc(N)nc4ccc32)c1 [Compound 53] | 64 µg/mL | 0.26 µg/mL | 21.3 µg/mL | 0.26 µg/mL | 0.26 µg/mL |  |  |  |  |  | 
COc1cccc(Cn2ccc3c4c(N)nc(N)nc4ccc32)n1 [Compound 67] | 0.26 µg/mL | 0.01 µg/mL | 2.37 µg/mL | 0.26 µg/mL | 0.09 µg/mL |  |  |  |  |  | 
CC(C)c1ccc(Cn2ccc3c4c(N)nc(N)nc4ccc32)cc1 [Compound 8] |  |  |  |  |  |  | 0.79 µg/mL (≈ 2.38 µM) | 0.03 µg/mL (≈ 0.0905 µM) | 2.37 µg/mL (≈ 7.15 µM) | 0.26 µg/mL (≈ 0.784 µM) | 0.088 µg/mL (≈ 0.266 µM)
Cc1cc2c(ccn2Cc2ccc(F)cc2)c2c(N)nc(N)nc12 [Compound 55] | 2.37 µg/mL | 0.03 µg/mL | 7.11 µg/mL | 0.26 µg/mL | 0.26 µg/mL |  |  |  |  |  | 
